Measured values reported in patent publication US9056886B2, “Guanosine-rich modified oligonucleotides and antiproliferative activity thereof” (APTABIO THERAPEUTICS INC., priority 2009, dated 2015).
[5FU] = 5-fluorouracil base (5-fluoro-2'-deoxyuridine unit); [GEM] = 2',2'-difluoro-2'-deoxycytidine (gemcitabine); [5FC] = 5-fluoro-2'-deoxycytidine; d = 2'-deoxy (DNA)

Key:
[1] = tested on: PC-3 cell line (prostate cancer cell); assay: Cell apoptosis (XTT method) in PC-3 cells; assay type: cell-based; details: PC3 (Prostate Cancer Cells), cultured six days, XTT
Procedure: (§1) Each oligonucleotide was diluted in 10 mM Tris-HCl (pH 7.4) to a final concentration of 100 μM. The diluted solution was placed at 94° C. for 5 minutes and then quickly placed them on ice and left therein for 5 minutes. The resultant was added with 2M KCl to a final concentration of 50 mM, left at 60° C. for 3 hours and then slowly cooled down to room temperature.
(§2) One day before the experiment, 190 μL of culture, wherein PC-3 cell line(prostate cancer cell) was suspended at a concentration of 10^3-10^4/mL, was inoculated respectively into each well of a 96 well plate. The next day, 10 μL of the oligonucleotide solution prepared in Example 1 was added and cultured for six days. Six days after the inoculation, cell apoptosis rate measured by means of XTT method [JBC 1999, 26369].

[2] = tested on: MCF7-DX (Breast Cancer Cells), a drug-resistance cell line; assay: Cell apoptosis (XTT method) in MCF7-DX cells; assay type: cell-based
Procedure: [Worded in the source for another cell line; this cell line is reported under the same test.] as §1, §2
As a result, it was confirmed that the cell apoptosis rate of APT-2001, APT-2002 and APT-2003 (the novel modified oligonucleotides of the present invention), was 3-10 times higher than those of APT-4001 (positive control) and APT-4002 (negative control) as measured in terms of IC50 or IC90 (FIG. 2). […] In addition, the cell apoptotic activity of the oligonucleotides, prepared according to the present invention over the K562 CML (chronic myeloid leukemia), MV-4-11 AML (acute leukemia) cells, were also verified.

Substance	IC50 [1] [nM]	IC50 [2] [nM]
APT-2032: GGTGGTGGTTNTGGTGGTGG (SEQ. ID. NO. 24); N=5-F-deoxyuridine, G=2-deoxy-guanosine, H=thymidine (DNA GGTGGTGGTTUTGGTGGTGG; aptamer; DNA, [5FU] at 11, backbone not given here)	> 10000	3600
APT-2042: GGNGGNGGNGGTTGTGGNGGNGGNGG (SEQ. ID. NO. 32); N=5-F-deoxyuridine, G=2-deoxy-guanosine, H=thymidine (5-F-deoxyuridine modified nucleosides)		500
APT-2022: GGTGGNNNNGGTGG (SEQ. ID. NO. 20); N=5-F-deoxyuridine, G=2-deoxy-guanosine, H=thymidine (DNA GGTGGUUUUGGTGG; DNA, [5FU] at 6, 7, 8, 9, backbone not given here)	110	790
APT-2071: GGTGGNGGTGGTTGTGGTGGNGGTGG (SEQ. ID. NO. 46); N=2′,2′-difluoro deoxycytidine, G=2-deoxy-guanosine, H=thymidine (2',2'-difluoro deoxycytidine modified nucleosides, chemistry not fully specified)		15
APT-2070: GGNGGTGGTGGTTGTGGTGGTGGTGG (SEQ. ID. NO. 45); N=2′,2′-difluoro deoxycytidine, G=2-deoxy-guanosine, H=thymidine (2',2'-difluoro deoxycytidine modified nucleosides, chemistry not fully specified)	24	13
APT-2044: GGNGGTGGTGGTTGTGGTGGTGGNGG (SEQ. ID. NO. 34); N=5-F-deoxycytidine, G=2-deoxy-guanosine, H=thymidine (DNA GGCGGTGGTGGTTGTGGTGGTGGCGG; DNA, [5FC] at 3, 24, backbone not given here; G-quadruplex forming oligonucleotide)		> 1000
APT-2043: GGNGGNGGTGGTTGTGGTGGNGGNGG (SEQ. ID. NO. 33); N=5-F-deoxyuridine, G=2-deoxy-guanosine, H=thymidine (5-F-deoxyuridine modified nucleosides)		600
APT-2066: GGTGGTGGTGGTNNTGGTGGTGGTGG (SEQ. ID. NO. 29); N=2′,2′-difluoro deoxycytidine, G=2-deoxy-guanosine, H=thymidine (DNA GGTGGTGGTGGTCCTGGTGGTGGTGG; sugars from the 5' end d12 [GEM]2 d12, backbone not given here; G-quadruplex forming oligonucleotide)	34	10
APT-2020: GGTGGTGGNNNNGGTGGTGG (SEQ. ID. NO. 18); N=5-F-deoxyuridine, G=2-deoxy-guanosine, H=thymidine (DNA GGTGGTGGUUUUGGTGGTGG; DNA, [5FU] at 9, 10, 11, 12, backbone not given here)	160	890
APT-2067: GGTGGTGGTGGTNGTGGTGGTGGTGG (SEQ. ID. NO. 43); N=2′,2′-difluoro deoxycytidine, G=2-deoxy-guanosine, H=thymidine (DNA GGTGGTGGTGGTCGTGGTGGTGGTGG; sugars from the 5' end d12 [GEM]1 d13, backbone not given here; G-quadruplex forming oligonucleotide)		24
APT-2063: GGTGGTGGTNGNGGTGGTGG (SEQ. ID. NO. 40); N=2′,2′-difluoro deoxycytidine, G=2-deoxy-guanosine, H=thymidine (aptamer; listed as DNA, chemistry not fully specified)	22	8
APT-2059: GGTGGTGGTNNTGGTGGTGG (SEQ. ID. NO. 23); N=2′,2′-difluoro deoxycytidine, G=2-deoxy-guanosine, H=thymidine (2',2'-difluoro deoxycytidine modified nucleosides, chemistry not fully specified)	15	4
APT-2061: GGTGGTGGTNGTGGTGGTGG (SEQ. ID. NO. 38); N=2′,2′-difluoro deoxycytidine, G=2-deoxy-guanosine, H=thymidine (DNA GGTGGTGGTCGTGGTGGTGG; aptamer; sugars from the 5' end d9 [GEM]1 d10, backbone not given here; G-quadruplex forming oligonucleotide)	41	22
APT-2040: GGTGGTGGTGGTTNTGGTGGTGGTGG (SEQ. ID. NO. 30); N=5-F-deoxyuridine, G=2-deoxy-guanosine, H=thymidine (DNA GGTGGTGGTGGTTUTGGTGGTGGTGG; DNA, [5FU] at 14, backbone not given here)		> 1000
APT-2060: GGTGGTGGNTGTGGTGGTGG (SEQ. ID. NO. 37); N=2′,2′-difluoro deoxycytidine, G=2-deoxy-guanosine, H=thymidine (aptamer; listed as DNA, chemistry not fully specified)	40	23
APT-2034: GGTGGTGGTNNNGGTGGTGG (SEQ. ID. NO. 26); N=5-F-deoxyuridine, G=2-deoxy-guanosine, H=thymidine (DNA GGTGGTGGTUUUGGTGGTGG; DNA, [5FU] at 10, 11, 12, backbone not given here)	> 10000	1200
APT-2031: GGTGGTGGTNNTGGTGGTGG (SEQ. ID. NO. 23); N=5-F-deoxyuridine, G=2-deoxy-guanosine, H=thymidine (DNA GGTGGTGGTUUTGGTGGTGG; aptamer; DNA, [5FU] at 10, 11, backbone not given here)	> 10000	1500
APT-2023: GGNGGTGGNGG (SEQ. ID. NO. 21); N=5-F-deoxyuridine, G=2-deoxy-guanosine, H=thymidine (DNA GGUGGTGGUGG; DNA, [5FU] at 3, 9, backbone not given here)	260	1860
APT-2064: GGNGGTGGTTGTGGTGGNGG (SEQ. ID. NO. 41); N=2′,2′-difluoro deoxycytidine, G=2-deoxy-guanosine, H=thymidine (DNA GGCGGTGGTTGTGGTGGCGG; sugars from the 5' end d2 [GEM]1 d14 [GEM]1 d2, backbone not given here; G-quadruplex forming oligonucleotide)	16	8
APT-2072: GGTGGTGGTTNTGGTGGTGGN (SEQ. ID. NO. 47); N=2′,2′-difluoro deoxycytidine, G=2-deoxy-guanosine, H=thymidine (2',2'-difluoro deoxycytidine modified nucleosides, chemistry not fully specified)	12	
APT-2035: GGTGGTGGTTNTGGTGGTGG (SEQ. ID. NO. 24); N=2′,2′-difluoro deoxycytidine, G=2-deoxy-guanosine, H=thymidine (2',2'-difluoro deoxycytidine modified nucleosides, chemistry not fully specified)	35	7
APT-2068: GGTGGTGGTGGTTGNGGTGGTGGTGG (SEQ. ID. NO. 31); N=2′,2′-difluoro deoxycytidine, G=2-deoxy-guanosine, H=thymidine (2',2'-difluoro deoxycytidine modified nucleosides, chemistry not fully specified)		23
APT-2069: GGTGGTGGTGGTNGNGGTGGTGGTGG (SEQ. ID. NO. 44); N=2′,2′-difluoro deoxycytidine, G=2-deoxy-guanosine, H=thymidine (2',2'-difluoro deoxycytidine modified nucleosides, chemistry not fully specified)		10
APT-2054: GGTGGTGGTGGTTNTGGTGGTGGTGG (SEQ. ID. NO. 30); N=2′,2′-difluoro deoxycytidine, G=2-deoxy-guanosine, H=thymidine (DNA GGTGGTGGTGGTTCTGGTGGTGGTGG; sugars from the 5' end d13 [GEM]1 d12, backbone not given here; G-quadruplex forming oligonucleotide)	< 300	< 300
APT-2033: GGTGGTGGTTTNGGTGGTGG (SEQ. ID. NO. 25); N=5-F-deoxyuridine, G=2-deoxy-guanosine, H=thymidine (DNA GGTGGTGGTTTUGGTGGTGG; aptamer; DNA, [5FU] at 12, backbone not given here)	> 10000	3300
APT-2013: NNNGGNGGNGGNGGTTGTGGNGGNGGNGG (SEQ. ID. NO. 10); N=5-F-deoxyuridine, G=2-deoxy-guanosine, H=thymidine (DNA UUUGGUGGUGGUGGTTGTGGUGGUGGUGG; DNA, [5FU] at 1, 2, 3, 6, 9, 12, 21, 24, 27, backbone not given here)	90	660
